US10604489B2, “Compounds for the treatment of pain” (priority 2018, dated 2020)
Like-named read-outs stand apart in the source and are kept apart here.

Tests used:
Male Sprague-Dawley rats [1] = experiment: animal or person; assay type: in vivo, rat
Male Sprague-Dawley rats [2] = settings: rat; for <60 mmHg @ 100X CFA MEMD: dose 100× CFA MEMD
μ-receptor = μ-receptor (Homo sapiens (Human), UniProt P35372); experiment: Receptor binding, competitive displacement of [3H]DAMGO; settings: 0.25 nM [3H]DAMGO, CHO cell membrane protein, 60 min at 25° C.
Outline: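 Membranes from CHO cells stably expressing cloned human μ-opioid receptor incubated 60 min at 25 °C with 12 compound concentrations and 0.25 nM [3H]DAMGO in 50 mM Tris-HCl pH 7.5; nonspecific binding with 10 μM naloxone. Filtration and scintillation counting; Ki from IC50 by Cheng-Prusoff.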

human μ opioid receptor [3] = molecular target: T1, human μ opioid receptor (Homo sapiens (Human), UniProt P35372); experiment: Functional activity ([35S]GTPγS binding); assay type: biochemical; settings: [35S]GTPγS 0.080 nM, CHO cell membranes, 60 min at 30° C., filtration
Outline: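 Membranes from stably transfected CHO cells (7.5 μg) incubated with 12 test-compound concentrations and 0.080 nM [35S]GTPγS in 50 mM Tris-HCl pH 7.4, 3 mM MgCl2, 0.2 mM EGTA, 3 μM GDP, 100 mM NaCl, 60 min at 30° C. Nonspecific binding defined with 10 μM GTPγS; bound label collected by filtration and scintillation counting.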

human μ opioid receptor [4] = molecular target: T1, human μ opioid receptor; experiment: Alternate functional activity ([35S]GTPγS binding) assay, SPA beads; assay type: biochemical; settings: alternate assay: [35S]GTPγS 0.020 nM, CHO cell membranes with WGA PVT SPA beads
Method: The [^35S]GTPγS assay measures the functional properties of a compound by quantifying the level of G-protein activation following agonist binding in studies using stably transfected cells, and is considered to be a measure of the efficacy of a compound. Membranes from CHO (Chinese Hamster Ovary) cells that stably expressed one type of the cloned human opioid receptor human were used in the experiments. The assay buffer consisted of 50 mM Tris-HCl, pH 7.4, 3 mM MgCl2, 0.2 mM EGTA, 5 μM GDP, and 100 mM NaCl. CHO cell membranes stably expressing the human p opioid receptor were pre-incubated with scintillation proximity assay beads from PerkinElmer® (WGA PVT SPA) for 30 minutes, at 8 µg membrane and […] beads in a volume of 0.1 mL per reaction. In a final volume of 0.2 mL, 11 different concentrations of each test compound were incubated with the membrane-SPA bead mixture and a final concentration of 0.020 nM [35S]GTPγS for 1.5 hours with gentle shaking. Reactions were then incubated for 5 hours. Data are the mean EC50 values ±S.E.M. EC50 values (nM) for compounds 12, 16, 19, 20, 149, 151, 152, 157, 160, 161, 164-169, 172, 173, 180-197, and 199-207 are shown in Table 1.

[5] = sc, minimum dose at which maximal reversal of hind paw weight bearing (50±0.5%) was achieved, subcutaneous administration, rat, read-out: MEMD SC CFA
[6] = maximum pCO2 within 2 hours of administration, dose 10× CFA MEMD, subcutaneous
[7] = maximum pCO2 within 2 hours of administration, subcutaneous
[8] = Rattus norvegicus, sc, read-out: MEMD SC CFA (mg/kg)

With `COC[C@H](C)N1CC2CCCC(C1)C2(OC)c1ccnc(C(N)=O)c1.Cl` (single isomer, unassigned) [Compound 61] the minimal effective dose (Male Sprague-Dawley rats [1]; [5]) was 0.3 mg/kg, the “<60 mmHg @ 10X CFA MEMD” value (Male Sprague-Dawley rats [2]; [6]) was “+ (resulted in a maximum pCO2 value of less than 60 mmHg within 2 hours of administration)” and the “<60 mmHg @ 100X CFA MEMD” value (Male Sprague-Dawley rats [2]; [7]) was “+ (resulted in a maximum pCO2 value of less than 60 mmHg within 2 hours of administration)”.

With `COC1(c2cccc(C(N)=O)c2)C2CCCC1CN([C@H]1CCCOC1)C2.Cl` (single isomer, unassigned) [Compound 140] the minimal effective dose (Male Sprague-Dawley rats [1]; [5]) was 0.1 mg/kg and the “<60 mmHg @ 10X CFA MEMD” value (Male Sprague-Dawley rats [2]; [6]) was “+ (resulted in a maximum pCO2 value of less than 60 mmHg within 2 hours of administration)”.

`COC1(c2cccc(C(N)=O)c2)C2CCCC1CN(CC1CC1)C2.Cl` [Compound 22, 3-((1R,5S,9r)-3-(cyclopropylmethyl)-9-methoxy-3-azabicyclo[3.3.1]nonan-9-yl)benzamide hydrochloride] was tested, and the Ki (μ-receptor) was < 1 nM, the minimal effective dose (Male Sprague-Dawley rats [1]; [5]) was 0.1 mg/kg and the EC50 (human μ opioid receptor [3]) was < 10 nM. For the same molecule, the “<60 mmHg @ 10X CFA MEMD” value (Male Sprague-Dawley rats [2]; [6]) was “+ (resulted in a maximum pCO2 value of less than 60 mmHg within 2 hours of administration)” and the “<60 mmHg @ 100X CFA MEMD” value (Male Sprague-Dawley rats [2]; [7]) was “− (resulted in a maximum pCO2 value of greater than 60 mmHg within 2 hours of administration)”.

In the case of `COC1(c2cccc(C(N)=O)c2)C2CCCC1CN(C)C2.Cl` [Compound 23, 3-((1R,5S,9r)-9-methoxy-3-methyl-3-azabicyclo[3.3.1]nonan-9-yl)benzamide hydrochloride], the Ki (μ-receptor) is reported as < 1 nM, the minimal effective dose (Male Sprague-Dawley rats [1]; [5]) is reported as 0.1 mg/kg and the EC50 (human μ opioid receptor [3]) is reported as < 10 nM. For the same molecule, the “<60 mmHg @ 10X CFA MEMD” value (Male Sprague-Dawley rats [2]; [6]) was “+ (resulted in a maximum pCO2 value of less than 60 mmHg within 2 hours of administration)” and the “<60 mmHg @ 100X CFA MEMD” value (Male Sprague-Dawley rats [2]; [7]) was “+ (resulted in a maximum pCO2 value of less than 60 mmHg within 2 hours of administration)”.

For `COC1(c2ccnc(C(N)=O)c2)C2CCCC1CN(CC1CC1)C2.Cl` [Compound 27, 4-((1R,5S,9r)-3-(cyclopropylmethyl)-9-methoxy-3-azabicyclo[3.3.1]nonan-9-yl)picolinamide hydrochloride], the Ki (μ-receptor) was 1 to 5 nM, the minimal effective dose (Male Sprague-Dawley rats [1]; [5]) was 0.01 mg/kg and the EC50 (human μ opioid receptor [3]) was 10 to 75 nM. The “<60 mmHg @ 100X CFA MEMD” value (Male Sprague-Dawley rats [2]; [7]) was “+ (resulted in a maximum pCO2 value of less than 60 mmHg within 2 hours of administration)”.

With `COC1(c2ccnc(C(N)=O)c2)C2CCCC1CN(C)C2.Cl` [Compound 43, 4-((1R,5S,9r)-9-methoxy-3-methyl-3-azabicyclo[3.3.1]nonan-9-yl)picolinamide hydrochloride] the Ki (μ-receptor) was < 1 nM, the minimal effective dose (Male Sprague-Dawley rats [1]; [5]) was 0.1 mg/kg and the EC50 (human μ opioid receptor [3]) was 10 to 75 nM. The “<60 mmHg @ 10X CFA MEMD” value (Male Sprague-Dawley rats [2]; [6]) was “+ (resulted in a maximum pCO2 value of less than 60 mmHg within 2 hours of administration)” and the “<60 mmHg @ 100X CFA MEMD” value (Male Sprague-Dawley rats [2]; [7]) was “+ (resulted in a maximum pCO2 value of less than 60 mmHg within 2 hours of administration)”.

`COC1(c2ccc(C(N)=O)s2)C2CCCC1CN(C)C2.Cl` [Compound 48, 5-((1R,5S,9r)-9-methoxy-3-methyl-3-azabicyclo[3.3.1]nonan-9-yl)thiophene-2-carboxamide hydrochloride] was tested, and the Ki (μ-receptor) was < 1 nM, the minimal effective dose (Male Sprague-Dawley rats [1]; [5]) was 0.1 mg/kg and the EC50 (human μ opioid receptor [3]) was 10 to 75 nM.

For `COC1(c2ccnc(C(N)=O)c2)C2CCCC1CN(C1CCOCC1)C2.Cl` [Compound 56, 4-((1R,5S,9r)-9-methoxy-3-(tetrahydro-2H-pyran-4-yl)-3-azabicyclo[3.3.1]nonan-9-yl)picolinamide hydrochloride], the Ki (μ-receptor) was > 5 nM, the minimal effective dose (Male Sprague-Dawley rats [1]; [5]) was 3 mg/kg and the EC50 (human μ opioid receptor [3]) was > 75 nM.

`COC1(c2cccc(C(N)=O)c2)C2CCCC1CN(CCN1CCNC1=O)C2.Cl` [Compound 63, 3-((1R,5S,9r)-9-methoxy-3-(2-(2-oxoimidazolidin-1-yl)ethyl)-3-azabicyclo[3.3.1]nonan-9-yl)benzamide hydrochloride] was tested, and the Ki (μ-receptor) was < 1 nM, the minimal effective dose (Male Sprague-Dawley rats [1]; [5]) was > 1 mg/kg and the EC50 (human μ opioid receptor [3]) was 10 to 75 nM.

With `COC1(c2cccc(C(N)=O)c2)C2CCCC1CN(CCN1C(=O)CCC1=O)C2.Cl` [Compound 65, 3-((1R,5S,9r)-3-(2-(2,5-dioxopyrrolidin-1-yl)ethyl)-9-methoxy-3-azabicyclo[3.3.1]nonan-9-yl)benzamide hydrochloride] the Ki (μ-receptor) was < 1 nM, the minimal effective dose (Male Sprague-Dawley rats [1]; [5]) was 0.1 mg/kg and the EC50 (human μ opioid receptor [3]) was < 10 nM.

`COC1(c2ccnc(C(N)=O)c2)C2CCCC1CN(Cc1cnc[nH]1)C2.Cl` [Compound 96, 4-((1R,5S,9r)-3-((1H-imidazol-5-yl)methyl)-9-methoxy-3-azabicyclo[3.3.1]nonan-9-yl)picolinamide hydrochloride] was tested, and the Ki (μ-receptor) was < 1 nM, the minimal effective dose (Male Sprague-Dawley rats [1]; [5]) was 1 mg/kg and the EC50 (human μ opioid receptor [3]) was 10 to 75 nM.

With `COC1(c2ccnc(C(N)=O)c2)C2CCCC1CN(C[C@@H]1C[C@@H]3C[C@@H]3C1)C2.Cl` (stereo partly drawn) [Compound 104, 4-((1R,5S,9R)-3-((1R,3s,5S)-bicyclo[3.1.0]hexan-3-ylmethyl)-9-methoxy-3-azabicyclo[3.3.1]nonan-9-yl)picolinamide hydrochloride] the Ki (μ-receptor) was < 1 nM, the minimal effective dose (Male Sprague-Dawley rats [1]; po, minimum dose at which maximal reversal of hind paw weight bearing was achieved, dosed orally, rat, read-out: MEMD SC CFA) was ≤ 0.1 mg/kg and the EC50 (human μ opioid receptor [3]) was 10 to 75 nM.

In the case of `COCCN1CC2CCCC(C1)C2(OC)c1cccc(C(N)=O)c1.Cl` [Compound 128, 3-((1R,5S,9r)-9-methoxy-3-(2-methoxyethyl)-3-azabicyclo[3.3.1]nonan-9-yl)benzamide hydrochloride], the Ki (μ-receptor) is reported as < 1 nM, the minimal effective dose (Male Sprague-Dawley rats [1]; [5]) is reported as 1 mg/kg and the EC50 (human μ opioid receptor [3]) is reported as 10 to 75 nM.

In the case of `COC1(c2cccc(C(N)=O)c2)C2CCCC1CN(CCC1CC1)C2.Cl` [Compound 138, 3-((1R,5S,9r)-3-(2-cyclopropylethyl)-9-methoxy-3-azabicyclo[3.3.1]nonan-9-yl)benzamide hydrochloride], the Ki (μ-receptor) is reported as < 1 nM, the minimal effective dose (Male Sprague-Dawley rats [1]; [5]) is reported as 0.3 mg/kg and the EC50 (human μ opioid receptor [3]) is reported as < 10 nM.

`CO[C@@]1(c2ccnc(C(N)=O)c2)[C@@H]2CCC[C@H]1CN(Cc1ncc(C)[nH]1)C2.Cl` [Compound 153, 4-((1R,5S,9r)-9-methoxy-3-((5-methyl-1H-imidazol-2-yl)methyl)-3-azabicyclo[3.3.1]nonan-9-yl)picolinamide hydrochloride] was tested, and the Ki (μ-receptor) was < 1 nM, the “MEMD SC CFA” value (Male Sprague-Dawley rats [1]; minimum dose at which maximal reversal of hind paw weight bearing (50±0.5%) was achieved, subcutaneous administration, rat) was 1 mg/kg and the EC50 (human μ opioid receptor [3]) was 10 to 75 nM.

With `COC1(c2cccc(C(N)=O)c2)C2CCCC1CN(CCc1cnn[nH]1)C2.Cl` [Compound 155, 3-((1R,5S,9r)-3-(2-(1H-1,2,3-triazol-4-yl)ethyl)-9-methoxy-3-azabicyclo[3.3.1]nonan-9-yl)benzamide hydrochloride] the Ki (μ-receptor) was < 1 nM, the minimal effective dose (Male Sprague-Dawley rats [1]; [5]) was 1 mg/kg and the EC50 (human μ opioid receptor [3]) was < 10 nM.

In the case of `CCOC1(c2ccnc(C(N)=O)c2)C2CCCC1CNC2` (stereo not shown) [Compound 161], the minimal effective dose (Male Sprague-Dawley rats [1]; [5]) is reported as 0.3 mg/kg and the EC50 (human μ opioid receptor [4]) is reported as 10 to 75 nM.

For `COC1(c2cccc(C(N)=O)c2)C2CCCC1CN(C[C@H]1[C@@H]3COC[C@@H]31)C2.Cl` (stereo partly shown) [Compound 176], the Ki (μ-receptor) was < 1 nM, the minimal effective dose (Male Sprague-Dawley rats [1]; [5]) was 0.1 mg/kg and the EC50 (human μ opioid receptor [3]) was < 10 nM.

For `CN1CC[C@]23c4c5ccc(O)c4O[C@H]2[C@@H](O)C=C[C@H]3[C@H]1C5` [Morphine, reference compound], the minimal effective dose (Male Sprague-Dawley rats [1]; [8]) was 3 mg/kg and the “<60 mmHg @ 10X CFA MEMD” value (Male Sprague-Dawley rats [2]; in vivo, sc) was “− (key: −: resulted in a maximum pCO2 value of greater than 60 mmHg within 2 hours of administration; +: resulted in a maximum pCO2 value of less than 60 mmHg within 2 hours of administration)”.

With `Oc1ccc2c3c1O[C@H]1[C@@H](O)CC[C@@]4(O)[C@@H](C2)N(CC2CCC2)CC[C@]314` [Nalbuphine, reference compound] the minimal effective dose (Male Sprague-Dawley rats [1]; [8]) was > 10 mg/kg.

For `COc1ccc2c3c1O[C@H]1C(=O)CC[C@@]4(O)[C@@H](C2)N(C)CC[C@]314` [Oxycodone, reference compound], the minimal effective dose (Male Sprague-Dawley rats [1]; [8]) was 3 mg/kg and the “<60 mmHg @ 10X CFA MEMD” value (Male Sprague-Dawley rats [2]; in vivo, sc) was “− (key: −: resulted in a maximum pCO2 value of greater than 60 mmHg within 2 hours of administration; +: resulted in a maximum pCO2 value of less than 60 mmHg within 2 hours of administration)”.
